Data on one compound can be found in US20230219965A1 (KSQ Therapeutics, Inc., priority 2020, published 2023).

One data set deals with USP1/UAF1 enzyme (Homo sapiens, UniProt O94782). As to the kind of experiment: USP1/UAF1 deubiquitination assay (ubiquitin-rhodamine 110 substrate). In kind it is biochemical. Conditions: read-out: USP1 IC50 (Ub-Rho). A digest of the protocol:
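0.05 nM USP1/UAF1 was preincubated 10 min with compounds (dose response from 10 μM) in 50 mM Tris-HCl pH 7.8, 0.5 mM EDTA, 0.01% BSA, 1 mM DTT, 0.01% Tween-20. 150 nM ubiquitin-rhodamine 110 started the reaction, read kinetically 30 min at Ex480/Em540; IC50 by four-parameter fit versus no-enzyme and DMSO controls.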

Data set [1] concerns Ub-PCNA levels in the nucleus of ES2 cells (USP1 activity). The data set can be described thus: ES2 Ub-PCNA immunofluorescence (IF) assay. The data set is classed as cell-based. As to conditions: Homo sapiens, ES-2; ES2 cells, 3 hours, Ub-PCNA immunofluorescence; read-out: USP1 IC50 (Ub-PCNA). In short, it runs like this: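 Cells plated overnight, then compound-treated for 3 h at 37° C (0.3% DMSO final), methanol-fixed and stained with anti-Ub-PCNA plus DAPI. Per-nucleus Ub-PCNA intensity imaged; cells above the 95% cutoff of untreated wells counted as positive, and percent positive cells used to derive AC50.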

The nature of data set [2]: ADME solubility determination in PBS at pH 2.0 and pH 7.4. The data set is classed as physicochemical. Conditions: phosphate buffered saline, 25 °C, thermodynamic from solid. In short, it runs like this: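 Dried 10 mM DMSO stock residues taken up in PBS pH 7.4 or pH 2.0, shaken 24 h at 25° C. After centrifugation, supernatant quantified by LC-MS/MS against a standard of known concentration, with a dilution factor applied.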

A short description of data set [3]: Liver microsomal metabolic stability, rat liver microsomes (RLM). Conditions: rat, liver microsomes, t1/2 (min) in RLM, 1 μM compound, 1 mg/mL microsomes, NADPH.
Data set [4] can be described thus: Liver microsomal metabolic stability, human liver microsomes (HLM). As to conditions: human, liver microsomes.

Read-outs that look alike come from different tables or passages of the source.

USP1/UAF1 enzyme, sequence (O94782 whole entry): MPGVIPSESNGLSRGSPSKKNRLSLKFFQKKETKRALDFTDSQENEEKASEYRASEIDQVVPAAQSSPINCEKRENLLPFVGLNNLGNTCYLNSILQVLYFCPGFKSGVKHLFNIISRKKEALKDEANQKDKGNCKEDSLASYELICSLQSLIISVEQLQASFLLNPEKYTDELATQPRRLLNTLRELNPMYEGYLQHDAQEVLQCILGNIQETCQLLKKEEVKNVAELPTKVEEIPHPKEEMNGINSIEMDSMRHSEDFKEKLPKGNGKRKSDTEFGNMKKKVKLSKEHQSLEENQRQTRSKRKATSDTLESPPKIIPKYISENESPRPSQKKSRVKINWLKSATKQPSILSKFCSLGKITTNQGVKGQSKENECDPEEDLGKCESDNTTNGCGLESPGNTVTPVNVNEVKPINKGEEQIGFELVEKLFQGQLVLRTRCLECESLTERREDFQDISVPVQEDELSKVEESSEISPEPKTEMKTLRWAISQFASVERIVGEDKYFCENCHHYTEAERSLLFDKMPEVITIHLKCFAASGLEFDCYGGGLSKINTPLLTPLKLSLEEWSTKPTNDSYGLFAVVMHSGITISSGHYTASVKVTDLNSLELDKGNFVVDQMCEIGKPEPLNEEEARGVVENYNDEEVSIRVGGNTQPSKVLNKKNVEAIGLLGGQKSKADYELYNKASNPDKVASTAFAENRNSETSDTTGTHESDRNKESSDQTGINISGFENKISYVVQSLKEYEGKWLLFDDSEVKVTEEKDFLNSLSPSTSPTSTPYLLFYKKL
USP1/UAF1 enzyme, sequence (Q8TAF3 whole entry partner): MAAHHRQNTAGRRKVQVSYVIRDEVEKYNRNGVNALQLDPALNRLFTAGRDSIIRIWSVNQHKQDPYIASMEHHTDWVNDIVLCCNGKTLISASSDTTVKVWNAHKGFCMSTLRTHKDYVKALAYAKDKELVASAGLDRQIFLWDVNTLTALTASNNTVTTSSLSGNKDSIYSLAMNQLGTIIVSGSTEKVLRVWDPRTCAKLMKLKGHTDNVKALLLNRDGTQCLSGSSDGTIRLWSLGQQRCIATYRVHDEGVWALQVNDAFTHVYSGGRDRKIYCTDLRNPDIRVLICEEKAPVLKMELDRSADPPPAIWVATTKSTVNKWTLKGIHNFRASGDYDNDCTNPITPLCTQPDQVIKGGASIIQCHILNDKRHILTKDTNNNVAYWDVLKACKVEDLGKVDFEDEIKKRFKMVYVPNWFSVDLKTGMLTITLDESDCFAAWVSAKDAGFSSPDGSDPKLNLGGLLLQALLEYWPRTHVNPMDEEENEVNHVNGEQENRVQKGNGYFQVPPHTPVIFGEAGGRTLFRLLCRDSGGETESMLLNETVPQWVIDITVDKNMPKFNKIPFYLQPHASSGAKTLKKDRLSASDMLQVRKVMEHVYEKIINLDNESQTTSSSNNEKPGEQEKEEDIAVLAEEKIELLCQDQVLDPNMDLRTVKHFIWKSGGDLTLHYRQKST

As to `CC(C)n1cc(C(F)(F)F)nc1-c1ccc(C(N2CCCn3nc(-c4c(Cl)cnn4C(C)C)cc32)C(F)(F)F)cc1F` (stereo not drawn) [Example 371, 2-(4-chloro-1-isopropyl-1H-pyrazol-5-yl)-4-(2,2,2-trifluoro-1-(3-fluoro-4-(1-isopropyl-4-(trifluoromethyl)-1H-imidazol-2-yl)phenyl)ethyl)-4,5,6,7-tetrahydropyrazolo[1,5-α]pyrimidine], the IC50 (on USP1/UAF1 enzyme; in data set [1]) was less than 0.1 µM each time. Further, the solubility at 24 h was less than 10 µM in data set [2] (pH 2, aqueous buffer, PBS pH 2.0, 25° C., read-out: Solubility at pH 2.0) and less than 10 µM in data set [2] (pH 7.4, aqueous buffer, PBS pH 7.4, 25° C., read-out: Solubility at pH 7.4). The half-life at 1 μM in data set [3] and in data set [4] was less than 25 min in each case.

As usually defined, the IC50 is the concentration needed to halve the response being measured. The solubility is the concentration that dissolves in the medium under given conditions. By half-life is commonly meant the time needed for the level to fall by half in the phase considered. Low readings indicate rapid decline, high ones slow decline.
